Data on one cell line can be found in the supplement of paper PMC10307832.

What all share (assay): relative viability (nuclei count vs DMSO), 5 days (fraction); higher = more cells survive
Compound in the experiment “XMD14-99 + Palbociclib”: CN1CCN(CC1)C2=CC(=C(C=C2)NC3=NC(=C(S3)C(=O)C4=C(C=CC=C4Cl)Cl)N)OC [XMD14-99] + CC(=O)c1c(C)c2cnc(Nc3ccc(N4CCNCC4)cn3)nc2n(C2CCCC2)c1=O [Palbociclib] (partner 0.5 µM)
In a few lines:
(§1)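 The day after seeding in 1536-well plates, lung cancer cell lines were treated by pin tool with a single drug, or with a fixed anchor-drug dose together with five library-drug doses (not always all listed) in √10 steps. After 5 days, a combined fix-and-stain solution (final 0.05% Triton X-100, 1% formaldehyde, 1 ug/ml Hoechst) was added. Nuclei counted on 4× images gave relative viability as treated counts over vehicle counts, reported as the median of duplicate plates.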

Compound in the experiment “XMD14-99 + Alpelisib”: CN1CCN(CC1)C2=CC(=C(C=C2)NC3=NC(=C(S3)C(=O)C4=C(C=CC=C4Cl)Cl)N)OC [XMD14-99] + Cc1nc(NC(=O)N2CCC[C@H]2C(N)=O)sc1-c1ccnc(C(C)(C)C(F)(F)F)c1 [Alpelisib] (partner 2 µM)
In a few lines:
as §1

Compound in the experiment “XMD14-99 + Luminespib”: CN1CCN(CC1)C2=CC(=C(C=C2)NC3=NC(=C(S3)C(=O)C4=C(C=CC=C4Cl)Cl)N)OC [XMD14-99] + CCNC(=O)c1noc(-c2cc(C(C)C)c(O)cc2O)c1-c1ccc(CN2CCOCC2)cc1 [Luminespib] (partner 0.01 µM)
In a few lines: as §1

Compound in the experiment “XMD14-99 + Crizotinib”: CN1CCN(CC1)C2=CC(=C(C=C2)NC3=NC(=C(S3)C(=O)C4=C(C=CC=C4Cl)Cl)N)OC [XMD14-99] + C[C@@H](Oc1cc(-c2cnn(C3CCNCC3)c2)cnc1N)c1c(Cl)ccc(F)c1Cl [Crizotinib] (partner 1 µM)
In a few lines: as §1

Compound in the experiment “XMD14-99 + Phenformin”: CN1CCN(CC1)C2=CC(=C(C=C2)NC3=NC(=C(S3)C(=O)C4=C(C=CC=C4Cl)Cl)N)OC [XMD14-99] + N=C(N)NC(=N)NCCc1ccccc1 [Phenformin] (partner 250 µM)
In short, it runs like this: as §1

Take UMC-11: the relative viability was 0.34 with XMD14-99 + Palbociclib (first compound 0.08 µM); 0.383 in the experiment with XMD14-99 + Palbociclib (first compound 0.8 µM); 0.346 in the experiment with XMD14-99 + Palbociclib (first compound 2.53 µM); 0.292 with XMD14-99 + Palbociclib (first compound 8 µM); 0.939 with XMD14-99 + Alpelisib (first compound 0.08 µM); 1.02 with XMD14-99 + Alpelisib (first compound 0.8 µM). For the same cell line, the relative viability with XMD14-99 + Alpelisib (first compound 2.53 µM) was 1.01; with XMD14-99 + Alpelisib (first compound 8 µM) it was 0.735; in the experiment with XMD14-99 + Luminespib (first compound 0.08 µM) it was 0.98; in the experiment with XMD14-99 + Luminespib (first compound 0.8 µM) it was 1.05; with XMD14-99 + Luminespib (first compound 2.53 µM), 0.98; in the experiment with XMD14-99 + Luminespib (first compound 8 µM) it was 0.828. Besides, the relative viability with XMD14-99 + Crizotinib (first compound 0.08 µM) was determined as 0.619; in the experiment with XMD14-99 + Crizotinib (first compound 0.8 µM) it was 0.582; in the experiment with XMD14-99 + Crizotinib (first compound 2.53 µM) it was 0.721; in the experiment with XMD14-99 + Crizotinib (first compound 8 µM), 0.577; in the experiment with XMD14-99 + Phenformin (first compound 0.08 µM), 0.336; with XMD14-99 + Phenformin (first compound 0.8 µM) it was 0.314. Besides, the relative viability in the experiment with XMD14-99 + Phenformin (first compound 2.53 µM) was found to be 0.319; with XMD14-99 + Phenformin (first compound 8 µM), 0.275.
